Reference: patent US12227895B2, “Odor reduction and bacterial control on a textile material” (Microban Products Company, priority 2019, dated 2025)
Read-outs that look alike come from different tables or passages of the source.

Assays:
bacteria = settings: for efficacy after home launderings: after 25 home launderings (FIG. 3); for efficacy (AATCC TM100): salts only, zero home launderings, liquor pH not lowered (FIG. 1)
Kp = settings: Polyester Fabric, Mathis JFO Exhaust
Description: High dye load samples are the most difficult to process using exhaustion dye techniques. A series of tests were run using PET (polyester) and polyspandex fabrics. In this test series the materials were tested in two different laboratories using container-style lab exhaust equipment. Alongside the treated samples, untreated fabrics were run for comparison.
The fabrics were tested as-made and after 25 home launderings (25 HL). Each home laundering was performed in a commercial front-load washing machine per AATCC Monograph M6 using Tide HE detergent.
Trials have been performed in a small Thiele exhaustion pilot unit, as well as in Mathis JFO pilot scale equipment, both of which use jets to forcibly impregnate the textile with the exhaust liquor.
Reductive Clears—Method A is 1% Na Hydrosulfite whereas Method B is 0.3% NaOH, 0.4% Na Hydrosulfite. “owg” is “on weight of goods”.

| SMILES | efficacy after home launderings (bacteria) | efficacy (AATCC TM100) (bacteria) | also measured |
| --- | --- | --- | --- |
| O=C(O)CC(O)(CC(=O)O)C(=O)O [Citric acid, citric acid] | not able to maintain efficacy | – | – |
| C/C=C/C=C/C(=O)[O-].[K+] [potassium sorbate, reference compound] | – | relatively low levels of efficacy | – |
| O=C([O-])c1ccccc1.[Na+] [sodium benzoate] | – | relatively low levels of efficacy | Percent reduction (Kp; 0 HL, sodium benzoate acidified with citric acid to pH<3.6, run as Example 4): 99.50%; Percent reduction (Kp; 25 HL, sodium benzoate acidified with citric acid to pH<3.6): 99.50% |
| C/C=C/C=C/C(=O)O [sorbic acid] | able to maintain efficacy following multiple washing cycles | – | efficacy after a reductive clear (bacteria; exhausted on polyester fabric, 0 HL (FIG. 4)): demonstrate efficacy after the reductive clear |
| O=C([O-])CC(O)(CC(=O)[O-])C(=O)[O-].[Na+].[Na+].[Na+] [trisodium citrate, reference compound] | – | relatively low levels of efficacy | – |
